# Data: patent US7312322B1, “Genetic sequences encoding steroid and juvenile hormone receptor polypeptides and insecticidal modalities therefor” (priority 1998, dated 2007)
# Legend:
# [1] = target: T1, chimeric EcR polypeptide encoded by plasmid pSGLD (UniProt O18531+P34021, A395P/D402E/DEL360-378/E403D/F552Y/I397C/I665A/INS379CATEI/K578E/L663I/M356I/Q393S/Q448S/Q580E/R443K/S415P/S515N/S605P/T357Q/T417S/T456H/V458A/Y611F); test: CHO cell co-transfection CAT reporter assay, chimeric EcR plasmid pSGLD; assay type: cell-based, D. melanogaster / L. cuprina; conditions: 10 μM and 50 μM Muristerone A, comparable to D. melanogaster base EcR polypeptide (FIG. 2)
# T1 construct: expressed in transfected cells
# Protocol: (§1) FIG. 2 is a copy of a graphical representation showing the activity of plasmid pSGLD and pSGDL, containing chimeric EcR polypeptide subunits of insect ecdysone receptors, produced as described in the Examples. Cotransfection assays were performed as described in the Examples using plasmids pSGLD and pSGDL and the CAT reporter plasmid p(EcRE)7-CAT (1 ug/ml) and an independent reporter, pPGKLacZ at 1 μg/ml each. CAT/b-Gal (%) refers to CAT reporter activity expressed as a percentage relative to β-galactosidase activity produced by the internal control reporter, pPGKLacZ.
# (§2) In one exemplification of this embodiment, plasmids pSGLD and pSGDL are produced comprising coding regions derived from the EcR polypeptides of the D. melanogaster and L. cuprina ecdysone receptors. In plasmid pSGLD, the 5′-end of the open reading frame of the D. melanogaster sequence, encoding the N-terminal portion of the EcR polypeptide of the D. melanogaster ecdysone receptor to the end of the DNA-binding domain of said polypeptide, is fused to the 3′-end of the open reading frame of the L. cuprina sequence, encoding the C-terminal portion of the EcR polypeptide of the L. cuprina ecdysone receptor, from the D domain and hormone-binding domain to the carboxyl terminus. […]
# [2] = target: T2, EcR polypeptide of the L. cuprina ecdysone receptor (Lucilia cuprina, UniProt O18531); test: CHO cell co-transfection CAT reporter assay, pSGLcEcR; assay type: cell-based; conditions: CHO cells, 48 h after transfection, average of three experiments (FIG. 1)
# T2 construct: Plasmid pF3 thus contains the complete open reading frame of the cDNA encoding the EcR polypeptide of the L. cuprina ecdysone receptor; expressed in transfected cells; host or cells: CHO cells
# T2 sequence (O18531 1-757): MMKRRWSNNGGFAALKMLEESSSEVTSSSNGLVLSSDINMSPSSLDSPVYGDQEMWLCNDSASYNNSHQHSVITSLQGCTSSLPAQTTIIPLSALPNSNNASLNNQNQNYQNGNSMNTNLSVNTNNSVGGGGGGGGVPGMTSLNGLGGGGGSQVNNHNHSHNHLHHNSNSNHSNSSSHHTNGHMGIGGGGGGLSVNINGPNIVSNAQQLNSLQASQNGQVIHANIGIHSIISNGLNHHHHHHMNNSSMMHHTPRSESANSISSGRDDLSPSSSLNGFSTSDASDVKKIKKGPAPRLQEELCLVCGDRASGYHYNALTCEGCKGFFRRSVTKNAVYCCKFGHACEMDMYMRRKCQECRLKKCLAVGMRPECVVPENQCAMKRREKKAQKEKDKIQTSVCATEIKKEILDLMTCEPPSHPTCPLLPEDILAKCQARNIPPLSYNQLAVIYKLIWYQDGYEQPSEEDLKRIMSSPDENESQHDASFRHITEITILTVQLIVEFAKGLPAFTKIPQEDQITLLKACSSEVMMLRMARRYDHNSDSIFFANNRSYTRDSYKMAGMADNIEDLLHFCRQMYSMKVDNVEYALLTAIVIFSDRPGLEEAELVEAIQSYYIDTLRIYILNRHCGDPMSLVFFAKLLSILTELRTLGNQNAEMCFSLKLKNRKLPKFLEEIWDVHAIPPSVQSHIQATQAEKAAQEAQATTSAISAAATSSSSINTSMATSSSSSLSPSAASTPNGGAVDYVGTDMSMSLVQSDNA
# Protocol: CHO cells were co-transfected with a mixture comprising the following DNAs, lysed and assayed for CAT and β-galactosidase enzyme activity, as described in the preceding Examples: • (1) one of the expression plasmids designated pSGDmEcR, or pSGLcEcR, or the parental expression plasmid pSG5 as a negative control, at a concentration of 1 μg/ml; and • (2) the CAT reporter plasmid p(EcRE)5CAT at a concentration of 1 μg/ml; and • (3) an independent LacZ reporter plasmid, pPGKLacZ, at a concentration of 1 μg/ml, included as a control to monitor transfection efficiency.
# CAT reporter gene expression was induced with 10 μM or 50 μM Muristerone A. In control samples, cells received only the carrier ethanol in place of Muristerone A.
# ELISA was used to quantify the synthesis of CAT and β-galactosidase enzymes, in extracts of cells forty eight hours after transfection. Account was taken of the variation between experiments, by normalizing the level of CAT enzyme to the level of β-galactosidase enzyme present in the same extract. Fold induction represents the normalized values for CAT gene expression in cells transfected with pSGDmEcR, pSGLcEcR or pSG5 in the presence of hormone divided by the normalized values for CAT gene expression in cells transfected with the same plasmid but in the absence of hormone. […]
# [3] = target: T3, chimeric EcR polypeptide encoded by plasmid pSGDL (Drosophila melanogaster, UniProt P34021, A242T/A248V/C246S/D219E/E244D/N243S/R304H/S245A/S251I/S295N/V221A/V259L/Y240F); test: CHO cell co-transfection CAT reporter assay, chimeric EcR plasmid pSGDL; assay type: cell-based, L. cuprina / D. melanogaster; conditions: 10 μM and 50 μM Muristerone A, comparable to D. melanogaster base EcR polypeptide (FIG. 2)
# T3 construct: expressed in transfected cells
# Protocol: as §1, §2
# [4] = target: T4, linker and ligand-binding regions of the D. melanogaster EcR polypeptide and partner protein (USP polypeptide) (Drosophila melanogaster, UniProt P34021); test: [3H]ponasterone A binding assay in cells infected by recombinant baculovirus (modified method of Yund et al); conditions: compared to the naturally-occurring ecdysone holoreceptor in L. cuprina embryos; no specific binding with control virus
# T4 construct: made in house; host or cells: recombinant baculovirus in insect Sf21 and Sf9 cells
# T4 sequence (P34021 419-654 limits assumed): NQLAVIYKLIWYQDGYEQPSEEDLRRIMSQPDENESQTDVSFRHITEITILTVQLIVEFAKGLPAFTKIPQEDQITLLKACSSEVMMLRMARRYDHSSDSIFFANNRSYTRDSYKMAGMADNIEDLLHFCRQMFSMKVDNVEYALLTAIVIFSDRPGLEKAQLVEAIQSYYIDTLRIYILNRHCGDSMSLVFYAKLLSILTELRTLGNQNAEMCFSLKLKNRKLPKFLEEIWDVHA
# T4 sequence (P20153 239-498 partner limits assumed): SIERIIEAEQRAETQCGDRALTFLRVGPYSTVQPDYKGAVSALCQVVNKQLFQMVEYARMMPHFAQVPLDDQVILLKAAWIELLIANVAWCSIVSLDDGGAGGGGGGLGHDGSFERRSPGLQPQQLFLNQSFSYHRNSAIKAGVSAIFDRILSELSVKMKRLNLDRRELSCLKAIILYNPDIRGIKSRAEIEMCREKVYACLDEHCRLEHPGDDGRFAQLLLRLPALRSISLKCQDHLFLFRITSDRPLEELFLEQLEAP
# From the text: The segment of pDmEcR.USP.DUAL which encodes the tagged linker and ligand-binding regions of the EcR polypeptide and partner protein (USP polypeptide) sequences, placed operably under the control of polyhedrin and p10 promoters, respectively, was recombined into a baculovirus genome, by employing the Tn7 transposition system (Luckow et al, (1993). The polypeptide products were then co-expressed in insect Sf21 and Sf9 cells, where they associated into a functional complex.
# The correctly-folded and associated complex formed by the truncated Ecr polypeptide and truncated EcR partner protein (USP polypeptide), is used for X-ray and NMR structural analysis and for high-throughput screens.
# T1 sequence (P34021+O18531 fused with the stated changes): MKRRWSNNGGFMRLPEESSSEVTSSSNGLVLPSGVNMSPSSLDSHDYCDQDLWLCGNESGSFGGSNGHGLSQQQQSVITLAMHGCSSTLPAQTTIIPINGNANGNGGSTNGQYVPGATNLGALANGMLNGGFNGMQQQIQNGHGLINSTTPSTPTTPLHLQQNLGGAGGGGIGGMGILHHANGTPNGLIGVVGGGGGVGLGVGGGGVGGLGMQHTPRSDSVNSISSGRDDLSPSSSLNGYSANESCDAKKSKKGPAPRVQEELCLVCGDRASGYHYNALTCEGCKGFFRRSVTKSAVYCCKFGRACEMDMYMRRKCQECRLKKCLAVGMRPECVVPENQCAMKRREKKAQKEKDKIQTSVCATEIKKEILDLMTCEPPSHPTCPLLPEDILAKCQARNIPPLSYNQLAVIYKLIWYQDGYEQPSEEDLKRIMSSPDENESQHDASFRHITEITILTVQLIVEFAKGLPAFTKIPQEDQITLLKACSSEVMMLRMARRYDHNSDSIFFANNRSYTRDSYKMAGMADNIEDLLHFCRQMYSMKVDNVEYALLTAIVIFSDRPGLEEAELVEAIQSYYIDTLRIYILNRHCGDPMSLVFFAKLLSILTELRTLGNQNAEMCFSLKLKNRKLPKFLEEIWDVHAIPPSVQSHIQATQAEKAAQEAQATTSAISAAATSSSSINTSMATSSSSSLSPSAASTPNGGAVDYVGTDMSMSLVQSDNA
# T3 sequence (P34021 other isoform, or with tags, fused parts or gaps with the stated changes): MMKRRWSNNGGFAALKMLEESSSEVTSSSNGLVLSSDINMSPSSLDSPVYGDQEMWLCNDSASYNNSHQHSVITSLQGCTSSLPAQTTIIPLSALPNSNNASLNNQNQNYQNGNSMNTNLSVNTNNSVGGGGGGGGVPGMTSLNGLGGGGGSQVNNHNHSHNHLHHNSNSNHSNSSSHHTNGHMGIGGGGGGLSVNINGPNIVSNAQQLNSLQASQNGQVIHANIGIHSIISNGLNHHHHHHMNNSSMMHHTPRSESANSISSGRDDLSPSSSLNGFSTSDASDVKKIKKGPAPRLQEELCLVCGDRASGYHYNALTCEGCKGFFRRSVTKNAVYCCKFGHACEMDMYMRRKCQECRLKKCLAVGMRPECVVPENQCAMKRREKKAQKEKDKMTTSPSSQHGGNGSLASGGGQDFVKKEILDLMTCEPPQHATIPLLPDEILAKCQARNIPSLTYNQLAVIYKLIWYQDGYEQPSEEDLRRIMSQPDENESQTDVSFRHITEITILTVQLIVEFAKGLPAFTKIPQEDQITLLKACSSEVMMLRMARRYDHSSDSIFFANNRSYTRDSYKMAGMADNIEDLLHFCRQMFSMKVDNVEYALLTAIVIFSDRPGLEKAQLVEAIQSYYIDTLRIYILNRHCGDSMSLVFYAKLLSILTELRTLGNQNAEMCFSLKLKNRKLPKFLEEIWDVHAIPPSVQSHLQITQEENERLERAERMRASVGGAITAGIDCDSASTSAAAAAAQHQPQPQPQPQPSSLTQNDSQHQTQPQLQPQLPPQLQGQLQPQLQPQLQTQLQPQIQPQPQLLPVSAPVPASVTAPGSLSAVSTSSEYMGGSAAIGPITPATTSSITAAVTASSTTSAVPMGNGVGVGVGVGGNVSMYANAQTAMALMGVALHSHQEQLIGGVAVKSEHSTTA
Compound,bioactivity in the CAT assay [1],CAT induction (fold induction) ([2]; 50 μM steroid),CAT induction (fold induction) ([2]; 10 μm steroid) [fold],bioactivity in the CAT assay [3],binding of labelled ligand in cells infected by the recombinant baculovirus [4]
CC(C)CC[C@@H](O)[C@](C)(O)[C@H]1CC[C@@]2(O)C3=CC(=O)[C@]4(O)C[C@@H](O)[C@@H](O)C[C@]4(C)[C@H]3[C@H](O)C[C@]12C [Muristerone A],Significant bioactivity,about 30 fold,~15,Significant bioactivity,
[^3H]ponasterone A,,,,,highly-significant increase in the binding
